Reference: PubChem BioAssay (NCI)
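Cells were grown in 96-well plates and exposed to each compound for 48 hours at five concentrations; endpoints were interpolated linearly between bracketing concentrations, or set to the highest concentration if not reached. GI50 = concentration required for 50% inhibition of growth. The concentration for full growth arrest is given as TGI.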

Experiments:
Assay in all cases: NCI-60 cell line screen, 48 h
DU-145 prostate = test system: DU-145 prostate
SNB-75 CNS = test system: SNB-75 CNS
T-47D breast = test system: T-47D breast
NCI-H460 lung = test system: NCI-H460 lung
SR leukemia = test system: SR leukemia
M14 melanoma = test system: M14 melanoma
SK-MEL-2 melanoma = test system: SK-MEL-2 melanoma
TK-10 renal = test system: TK-10 renal
U251 CNS = test system: U251 CNS
SF-295 CNS = test system: SF-295 CNS
MCF7 breast = test system: MCF7 breast
HCC-2998 colon = test system: HCC-2998 colon
HT29 colon = test system: HT29 colon
HCT-116 colon = test system: HCT-116 colon
NCI-H23 lung = test system: NCI-H23 lung
786-0 renal = test system: 786-0 renal
PC-3 prostate = test system: PC-3 prostate
CAKI-1 renal = test system: CAKI-1 renal
A549 NSCLC = test system: A549 NSCLC
OVCAR-5 ovarian = test system: OVCAR-5 ovarian
A498 renal = test system: A498 renal
OVCAR-3 ovarian = test system: OVCAR-3 ovarian
MALME-3M melanoma = test system: MALME-3M melanoma
COLO 205 colon = test system: COLO 205 colon
UACC-257 melanoma = test system: UACC-257 melanoma
RXF 393 renal = test system: RXF 393 renal
IGROV1 ovarian = test system: IGROV1 ovarian
SF-268 CNS = test system: SF-268 CNS
SK-MEL-28 melanoma = test system: SK-MEL-28 melanoma
HCT-15 colon = test system: HCT-15 colon
CCRF-CEM leukemia = test system: CCRF-CEM leukemia
OVCAR-4 ovarian = test system: OVCAR-4 ovarian
SW-620 colon = test system: SW-620 colon
ACHN renal = test system: ACHN renal
NCI-H522 lung = test system: NCI-H522 lung
UO-31 renal = test system: UO-31 renal
LOX IMVI melanoma = test system: LOX IMVI melanoma
KM12 colon = test system: KM12 colon
SF-539 CNS = test system: SF-539 CNS
SN12C renal = test system: SN12C renal
HOP-62 NSCLC = test system: HOP-62 NSCLC
MOLT-4 leukemia = test system: MOLT-4 leukemia
BT-549 breast = test system: BT-549 breast
OVCAR-8 ovarian = test system: OVCAR-8 ovarian
UACC-62 melanoma = test system: UACC-62 melanoma
SK-OV-3 ovarian = test system: SK-OV-3 ovarian
RPMI-8226 leukemia = test system: RPMI-8226 leukemia
SK-MEL-5 melanoma = test system: SK-MEL-5 melanoma
HS 578T breast = test system: HS 578T breast
NCI-H226 lung = test system: NCI-H226 lung
MDA-MB-231 breast = test system: MDA-MB-231 breast
HL-60(TB) leukemia = test system: HL-60(TB) leukemia
MDA-MB-435 = test system: MDA-MB-435
SNB-19 CNS = test system: SNB-19 CNS
K-562 leukemia = test system: K-562 leukemia
NCI/ADR-RES ovarian = test system: NCI/ADR-RES ovarian

For `COc1cccc(/C=N/NC(=S)NC2CC3CCC2C3)c1O` (configuration not stated), the GI50 (DU-145 prostate) was 9.79 µM, the TGI (DU-145 prostate) was 22.8 µM and the GI50 (SNB-75 CNS) was 1.58 µM. For the same molecule, the TGI (SNB-75 CNS) was 5.47 µM, the GI50 (T-47D breast) was 3.13 µM and the TGI (T-47D breast) was 11.8 µM. It also gave a GI50 (NCI-H460 lung) of 2.47 µM, a TGI (NCI-H460 lung) of 8.43 µM and a GI50 (SR leukemia) of 3.08 µM. It also gave a TGI (SR leukemia) of 10.8 µM, a GI50 (M14 melanoma) of 9.92 µM and a TGI (M14 melanoma) of 31.9 µM. It also gave a GI50 (SK-MEL-2 melanoma) of 18.2 µM, a TGI (SK-MEL-2 melanoma) of 34.9 µM and a GI50 (TK-10 renal) of 16.4 µM. The TGI (TK-10 renal) was 31.5 µM, the GI50 (U251 CNS) was 7.57 µM and the TGI (U251 CNS) was 26.7 µM. The GI50 (SF-295 CNS) was 4.63 µM, the TGI (SF-295 CNS) was 18 µM and the GI50 (MCF7 breast) was 4.74 µM. For the same molecule, the TGI (MCF7 breast) was 27.1 µM, the GI50 (HCC-2998 colon) was 80.4 µM and the TGI (HCC-2998 colon) was > 100 µM. For the same molecule, the GI50 (HT29 colon) was 30.1 µM, the TGI (HT29 colon) was 91.4 µM and the GI50 (HCT-116 colon) was 4.01 µM. The TGI (HCT-116 colon) was 15.8 µM, the GI50 (NCI-H23 lung) was 15.1 µM and the TGI (NCI-H23 lung) was 45.4 µM. For the same molecule, the GI50 (786-0 renal) was 19.5 µM, the TGI (786-0 renal) was 39.6 µM and the GI50 (PC-3 prostate) was 8.5 µM. The TGI (PC-3 prostate) was 27 µM, the GI50 (CAKI-1 renal) was 3.33 µM and the TGI (CAKI-1 renal) was 15.9 µM. For the same molecule, the GI50 (A549 NSCLC) was 4 µM, the TGI (A549 NSCLC) was 15.9 µM and the GI50 (OVCAR-5 ovarian) was 44.9 µM. The TGI (OVCAR-5 ovarian) was > 100 µM, the GI50 (A498 renal) was 3.18 µM and the TGI (A498 renal) was 12.9 µM. It also gave a GI50 (OVCAR-3 ovarian) of 3.07 µM, a TGI (OVCAR-3 ovarian) of 9.45 µM and a GI50 (MALME-3M melanoma) of 5.65 µM. For the same molecule, the TGI (MALME-3M melanoma) was 20 µM, the GI50 (COLO 205 colon) was 96.7 µM and the TGI (COLO 205 colon) was > 100 µM. It also gave a GI50 (UACC-257 melanoma) of 15.1 µM, a TGI (UACC-257 melanoma) of 38.7 µM and a GI50 (RXF 393 renal) of 13 µM. For the same molecule, the TGI (RXF 393 renal) was 28.1 µM, the GI50 (IGROV1 ovarian) was 10 µM and the TGI (IGROV1 ovarian) was 35.1 µM. It also gave a GI50 (SF-268 CNS) of 5.84 µM, a TGI (SF-268 CNS) of 21.5 µM and a GI50 (SK-MEL-28 melanoma) of 13.1 µM. The TGI (SK-MEL-28 melanoma) was 33.5 µM, the GI50 (HCT-15 colon) was 1.07 µM and the TGI (HCT-15 colon) was > 100 µM. It also gave a GI50 (CCRF-CEM leukemia) of 6.65 µM, a TGI (CCRF-CEM leukemia) of 38.7 µM and a GI50 (OVCAR-4 ovarian) of 1.82 µM. For the same molecule, the TGI (OVCAR-4 ovarian) was 4.46 µM, the GI50 (SW-620 colon) was 13.7 µM and the TGI (SW-620 colon) was > 100 µM. The GI50 (ACHN renal) was 2.5 µM, the TGI (ACHN renal) was 8.14 µM and the GI50 (NCI-H522 lung) was 11.5 µM. It also gave a TGI (NCI-H522 lung) of 37.6 µM, a GI50 (UO-31 renal) of 2.3 µM and a TGI (UO-31 renal) of 9.93 µM. The GI50 (LOX IMVI melanoma) was 5.09 µM, the TGI (LOX IMVI melanoma) was 18 µM and the GI50 (KM12 colon) was 26.3 µM. The TGI (KM12 colon) was > 100 µM, the GI50 (SF-539 CNS) was 10.8 µM and the TGI (SF-539 CNS) was 29.3 µM. The GI50 (SN12C renal) was 5.09 µM, the TGI (SN12C renal) was 22.9 µM and the GI50 (HOP-62 NSCLC) was 3.01 µM. The TGI (HOP-62 NSCLC) was 10 µM, the GI50 (MOLT-4 leukemia) was 10.5 µM and the TGI (MOLT-4 leukemia) was 48.3 µM. It also gave a GI50 (BT-549 breast) of 14.5 µM, a TGI (BT-549 breast) of 57.3 µM and a GI50 (OVCAR-8 ovarian) of 5.2 µM. It also gave a TGI (OVCAR-8 ovarian) of 18.5 µM, a GI50 (UACC-62 melanoma) of 10.8 µM and a TGI (UACC-62 melanoma) of 50.1 µM. For the same molecule, the GI50 (SK-OV-3 ovarian) was 4.46 µM, the TGI (SK-OV-3 ovarian) was 14.4 µM and the GI50 (RPMI-8226 leukemia) was 11.1 µM. The TGI (RPMI-8226 leukemia) was 49.7 µM, the GI50 (SK-MEL-5 melanoma) was 13.9 µM and the TGI (SK-MEL-5 melanoma) was 77.4 µM. It also gave a GI50 (HS 578T breast) of 4.27 µM, a TGI (HS 578T breast) of 22.2 µM and a GI50 (NCI-H226 lung) of 2.38 µM. For the same molecule, the TGI (NCI-H226 lung) was 10.9 µM, the GI50 (MDA-MB-231 breast) was 4.88 µM and the TGI (MDA-MB-231 breast) was 21.9 µM. It also gave a GI50 (HL-60(TB) leukemia) of 16.6 µM, a TGI (HL-60(TB) leukemia) of 60.3 µM and a GI50 (MDA-MB-435) of 16.1 µM. It also gave a TGI (MDA-MB-435) of 78.9 µM, a GI50 (SNB-19 CNS) of 14.6 µM and a TGI (SNB-19 CNS) of 35.9 µM. For the same molecule, the GI50 (K-562 leukemia) was 7.62 µM, the TGI (K-562 leukemia) was > 100 µM and the GI50 (NCI/ADR-RES ovarian) was 3.16 µM. The TGI (NCI/ADR-RES ovarian) was 15.1 µM.
